Entries after “also recorded” stand apart in the source; their conditions may differ.
Columns and labels:
Format in all cases: cell-based
pS6 = experiment: Western blot of AKT inhibitor dosed LNCaP cells, downstream pS6 (FIGS. 3-4)
Source text: (§1) FIGS. 3-4 show Western blot analysis of AKT inhibitor dosed to cancer cells (LNCaP cells).

IGROV1 cells = experiment: Treatment of parental and AKT-inhibitor-resistant IGROV1 ovarian cancer cells (FIGS. 7-9); settings: for potency in parental and resistant lines: all IGROV1 lines, FIG. 9
Experimental: (§2) The in vitro potency of the combinations of the compound of Example 2 with certain specific chemotherapeutic agents was measured using the CellTiterGlo® Luminescent Cell Viability Assay, commercially available from Promega Corp., Madison, Wis. This homogeneous assay method is based on the recombinant expression of Coleoptera luciferase (U.S. Pat. Nos. 5,583,024; 5,674,713; 5,700,670) and determines the number of viable cells in culture based on quantitation of the ATP present, an indicator of metabolically active cells (Crouch et al (1993) J. Immunol. Meth. 160:81-88; U.S. Pat. No. 6,602,677). The CellTiter-Glo® Assay was conducted in 96 or 384 well format, making it amenable to automated high-throughput screening (HTS) (Cree et al (1995) AntiCancer Drugs 6:398-404). The homogeneous assay procedure involves adding the single reagent (CellTiter-Glo® Reagent) directly to cells cultured in serum-supplemented medium. Cell washing, removal of medium and multiple pipetting steps are not required. The system detects as few as 15 cells/well in a 384-well format in 10 minutes after adding reagent and mixing.
The homogeneous “add-mix-measure” format results in cell lysis and generation of a luminescent signal proportional to the amount of ATP present. The amount of ATP is directly proportional to the number of cells present in culture. The CellTiterGlo® Assay generates a “glow-type” luminescent signal, produced by the luciferase reaction, which has a half-life generally greater than five hours, depending on cell type and medium used. Viable cells are reflected in relative luminescence units (RLU). The substrate, Beetle Luciferin, is oxidatively decarboxylated by recombinant firefly luciferase with concomitant conversion of ATP to AMP and generation of photons. The extended half-life eliminates the need to use reagent injectors and provides flexibility for continuous or batch mode processing of multiple plates. This cell proliferation assay can be used with various multiwell formats, e.g. 96 or 384 well format. Data can be recorded by luminometer or CCD camera imaging device. The luminescence output is presented as relative light units (RLU), measured over time.

LNCaP cells = experiment: Dose response of AKT inhibitors in parental and AKT-inhibitor-resistant LNCaP cells (FIGS. 1-2, 6)
Experimental: Resistant clones to both inhibitors were derived from populations of cancer cells treated with increasing doses of AKT inhibitor over time. […] For MK2206, cells that are ˜40× less sensitive were cloned.
as §2
The homogeneous “add-mix-measure” format results in cell lysis and generation of a luminescent signal proportional to the amount of ATP present. The amount of ATP is directly proportional to the number of cells present in culture. The CellTiterGlo® Assay generates a “glow-type” luminescent signal, produced by the luciferase reaction, which has a half-life generally greater than five hours, depending on cell type and medium used. Viable cells are reflected in relative luminescence units (RLU). […] Data can be recorded by luminometer or CCD camera imaging device. The luminescence output is presented as relative light units (RLU), measured over time.

Akt = experiment: Western blot of AKT inhibitor dosed LNCaP cells, Akt phosphorylation and inhibitor binding (FIGS. 3-4); settings: MK2206 resistant LNCaP cells vs parental lines
Source text: as §1

Question: For `CC(C)NC[C@@H](C(=O)N1CCN(c2ncnc3c2[C@H](C)C[C@H]3O)CC1)c1ccc(Cl)cc1` [GDC-0068, (S)-2-(4-chlorophenyl)-1-(4-((5R,7R)-7-hydroxy-5-methyl-6,7-dihydro-5H-cyclopenta [d]pyrimidin-4-yl)piperazin-1-yl)-3-(isopropylamino)propan-1-one], which “inhibition of downstream pS6” value (pS6; GDC-0068 resistant LNCaP cells) is on record?
Answer: less potent

Question: And the “resistance of GDC0068-resistant cells to the inhibitor” value (IGROV1 cells; IGROV1 cells resistant to GDC0068, GDC-0068 compared with MK2206)?
Answer: more resistant to GDC-0068 than MK2206

Question: What about the “sensitivity of MK2206-resistant cells to the inhibitor” value (LNCaP cells; MK2206-resistant LNCaP cells, FIG. 6) of the same compound?
Answer: still sensitive; also recorded: remain sensitvie

Question: Which “potency in parental and resistant lines” value (IGROV1 cells) does the source give for `CS(=O)(=O)N1CCN(Cc2cc3nc(-c4cccc5[nH]ncc45)nc(N4CCOCC4)c3s2)CC1` [GDC-0941] here?
Answer: remain potent

Question: For `Cc1c(CN2CCN(C(=O)[C@H](C)O)CC2)sc2c(N3CCOCC3)nc(-c3cnc(N)nc3)nc12` [GDC-0980], which “potency in parental and resistant lines” value (IGROV1 cells) is on record?
Answer: remain potent

Question: With `NC1(c2ccc(-c3nc4ccn5c(=O)[nH]nc5c4cc3-c3ccccc3)cc2)CCC1` [MK2206, 8-[4-(1-aminocyclobutyl)phenyl]-9-phenyl-1,2,4-triazolo[3,4-f][1,6]naphthyridin-3(2H)-one] as the compound, how does the “inhibition of Akt phosphorylation” value (Akt) read?
Answer: failed to inhibit Akt phosphorylation

Question: What about the “inhibition of pS6” value (pS6; MK2206 resistant LNCaP cells) of the same compound?
Answer: lost the inhibition of pS6

Question: What about the “resistance to allosteric inhibition” value (IGROV1 cells; IGROV1 cells resistant to GDC0068 and cells resistant to MK2206) of the same compound?
Answer: equally resistant

Question: And the “resistance of GDC-0068 selected cells to the inhibitor” value (LNCaP cells; GDC-0068 selected LNCaP cells, FIG. 6)?
Answer: similarly resistant

Question: And the “fold less sensitive to MK2206, resistant clones vs parental” value (LNCaP cells; LNCaP clones derived under increasing doses of MK2206)?
Answer: ~40 ×
